From article PMC7923628 (Proceedings of the National Academy of Sciences of the …, 2021)

Experiments:
E3 ROC1–CUL1 CTD = E3 ROC1–CUL1 CTD (Homo sapiens, UniProt Q13616); assay: FRET K48 di-Ub synthesis with ROC1–CUL1 CTD; type: biochemical; conditions: for blocking ubiquitination (in words): Table S2
p27 = assay: Immunoblot of CRL1/SCF^Skp2 substrate p27 in MV4-11 cells; type: cell-based, human
E3 ROC1–CUL1 CTD complex = E3 ROC1–CUL1 CTD complex (Homo sapiens, UniProt Q13616); assay: MST ligand binding to ROC1–CUL1 CTD; conditions: Table S2
MV4-11 tumors = assay: AML MV4-11 subcutaneous xenograft in mice; type: in vivo, mouse; conditions: G5, 3 mg/kg, oral, QD

Chain of E3 ROC1–CUL1 CTD (Q13616 411-776): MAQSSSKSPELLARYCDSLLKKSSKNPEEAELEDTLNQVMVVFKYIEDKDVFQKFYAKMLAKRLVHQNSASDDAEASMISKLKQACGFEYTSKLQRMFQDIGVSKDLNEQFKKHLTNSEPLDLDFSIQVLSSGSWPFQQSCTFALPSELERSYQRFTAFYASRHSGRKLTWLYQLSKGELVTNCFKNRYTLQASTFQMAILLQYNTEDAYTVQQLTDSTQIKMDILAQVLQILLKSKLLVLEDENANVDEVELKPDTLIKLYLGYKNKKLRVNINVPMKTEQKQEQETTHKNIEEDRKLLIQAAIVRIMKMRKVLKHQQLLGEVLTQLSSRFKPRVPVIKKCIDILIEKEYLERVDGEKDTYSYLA
Chain of E3 ROC1–CUL1 CTD (P62877 whole entry partner): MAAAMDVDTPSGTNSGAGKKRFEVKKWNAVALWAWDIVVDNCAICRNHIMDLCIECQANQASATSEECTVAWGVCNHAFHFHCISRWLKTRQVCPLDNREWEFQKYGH
Chain of E3 ROC1–CUL1 CTD complex (Q13616 411-776): as the sequence (Q13616 411-776) above
Chain of E3 ROC1–CUL1 CTD complex (P62877 whole entry partner): as the sequence (P62877 whole entry partner) above

Question: Which “blocking ubiquitination (in words)” value (E3 ROC1–CUL1 CTD) does the source give for `O=c1c(Oc2ccccc2)c(C(F)(F)F)oc2cc(O)ccc12` [33-7, 7-hydroxy-3-phenoxy-2-(trifluoromethyl)-4H-chromen-4-one] here?
Answer: inactive

Question: `Cc1oc2c(O)c(O)ccc2c(=O)c1Oc1ccccc1` [33-2, 7,8-dihydroxy-2-methyl-3-phenoxy-4H-chromen-4-one] was tested. Which “drop in IC50” value (E3 ROC1–CUL1 CTD; compared with 33) did it give?
Answer: sevenfold

Question: For `NS(=O)(=O)OC[C@@H]1C[C@@H](n2ccc3c(N[C@H]4CCc5ccccc54)ncnc32)C[C@@H]1O` [MLN4924], which “effect on p27 level” value (p27) is on record?
Answer: stabilized

Question: Which “blocking ubiquitination (in words)” value (E3 ROC1–CUL1 CTD) does the source give for `COc1ccc2c(=O)c(Oc3ccccc3)c(C)oc2c1OC` [33-3, 7,8-dimethoxy-2-methyl-3-phenoxy-4H-chromen-4-one] here?
Answer: completely inactive

Question: And the “E3 binding (in words)” value (E3 ROC1–CUL1 CTD complex)?
Answer: completely inactive

Question: `CNC(=O)c1cc(Oc2ccc(NC(=O)Nc3ccc(Cl)c(C(F)(F)F)c3)cc2)ccn1` [sorafenib] was tested. Which tumor inhibition (MV4-11 tumors) did it give?
Answer: 46.02%
